Data as given in patent US20090274739A1, “METHODS AND COMPOSITIONS FOR TREATING NEOINTIMAL HYPERPLASIA” (THE TRUSTEES OF COLUMBIA UNIVERSITY IN THE CITY OF NEW YORK, priority 2006, published 2009).
Entries after “also recorded” stand apart in the source; their conditions may differ.

Legend:
[1] = tested on: primary murine aortic vascular smooth muscle cells (VSMC); experiment: VSMC proliferation assay (Coulter counter / MTS-based); assay type: cell-based, mouse
Description: The methods used in the above experiments were as follows: Cell Culture and VSMC Proliferation Assays. Primary VSMC were isolated from aortic explants of wildtype, ob/ob, or db/db mice in the method of Roque et al. 30. VSMC were routinely cultured in Dulbecco's Modified Eagle's Medium (DMEM) containing either 4500 or 1250 mg/L glucose supplemented with 20% FBS at 37° C. in a 5% CO2 incubator. […] Cells were plated at 200,000 cells/ well of a 6 well dish and subsequently serum starved for 72 hr in DMEM media supplemented with 0.1 % FBS. Leptin dissolved in PBS was added directly to serum-free media at concentrations of 1, 10, or 100 ng/ml with […] LY294002 or U0126, and cells were grown for another 72 hr before harvesting. VSMC proliferation was measured by counting samples using a Coulter counter or using the Cell Titre 96 Aqueous One Solution Cell Proliferation Assay kit (Promega). Cell viability was assessed by Trypan Blue staining.
Proliferation of VSMCs: VSMC proliferation was measured by counting triplicate samples using a Coulter counter or using the CellTitier 96 Aqueous One Solution Cell Proliferation Assay (Promega, Madison, Wis.) kit per manufacturer's instructions. Cell viability was assessed via staining with Trypan Blue.
Murine VSMCs (2×10^4 cells/well) were incubated in a 6-well tissue culture plate for 72 hours in DMEM containing 0.1% FBS with or without insulin (10 or 100 nmol/L) and with 0, 1, 10, or 100 nmol/L rapamycin. Triplicate samples were counted using a Coulter counter and were normalized as percentage of the control group. Cell viability was checked via Trypan blue staining.
Murine VSMCs, seeded 2×10^4 cells/well in a 6-well plate, were starved for 72 hrs in DMEM with 0.1% FBS. Rapamycin, leptin, or insulin in different concentrations indicated in the figure were incubated with VSMCs in DMEM with 0.1% of FBS for 72 hrs. Triplicate samples were counted via a Coulter counter. Cell viability was checked via Trypan blue staining. […] In panel C, VSMCs were exposed to U0126, a specific MEK1/2 inhibitor, or LY294002, a specific PI3K inhibitor.
Primary VSMC were isolated from aortic explants of WT, ob/ob, or db/db mice (46). VSMC proliferation was determined using the Cell Titre Aqueous One Solution Proliferation Assay (Promega, Madison, Wis.). Migration to PDGF-BB was assessed in a modified Boyden chamber assay (47).

[2] = tested on: murine femoral artery wire injury model (neointimal hyperplasia); experiment: Femoral artery wire injury model, morphometry of neointimal formation; assay type: in vivo, mouse; design: Lumen / Media / Intima / TVA (total vessel area): unit not given here
Source text: Animal Models and Drug Treatments. Wild type C57BL/6J background mice and mice deficient for leptin (C57BL/6J-Lepob; ob/ob) or the leptin receptor (C57BL/6J-m+/+Lepdb; db/db) were purchased from Charles Jackson Laboratories, Maine. Mice were obtained at ages 6-8 weeks old and average weight 15 g. Animals were fed standard rodent chow and tap water ad libitum. Procedures and animal care were approved by the Institutional Animal Care and Use Committee. Mice were subjected to femoral artery wire injury or sham injury described below 24 hr prior to starting pharmacological treatments. Sirolimus was administered by intraperitoneal injection once per day for 14 days as a suspension in 0.2% sodium carboxymethyl cellulose and 0.25% polysorbate-80; duplicate experiments were accomplished with 0.5% DMSO. Leptin or LY294002 was administered by intraperitoneal injection once per day for 14 days as a suspension in PBS. Plasma leptin levels were measured at baseline, 3, 6, and 10 hr after leptin injection using an ELISA assay (R&D). Leptin plus the vehicle used for both sirolimus and LY294002 was used as the control group for the treatment groups with sirolimus and LY294002. After the 2-week treatment, animals were processed for femoral artery morphometry.
Femoral Artery Injury Model. Endoluminal injury of bilateral femoral arteries was performed according to the method of Roque et al. with minor modification 27. […] Briefly, to denude and dilate femoral arteries, a 0.014″ angioplasty guidewire (Guidant) was passed endoluminally 3 times to the level of the aortic bifurcation. A sham protocol was performed where the arteries underwent dissection, clamping, and ligature without passage of the guidewire.
Computer-aided quantitative morphometry to measure luminal, medial, intimal, and vessel areas were performed as previously described 27 with minor modification. Mice were euthanized via CO2 asphyxiation prior to en bloc excision of hind limbs. Briefly, multiple segments of the common femoral artery at the level of injury were fixed in 10% Zinc Formalin, embedded in paraffin, sectioned at […] thickness, and subjected to Elastic-Van Gieson staining at a Columbia University Core Histology facility. In many cases, arteries underwent immunohistochemical staining for smooth muscle a-actin to highlight the media and neointima. Photomicrographs were captured on Adobe Photoshop 7.0 and transferred to Scion Image software for quantitative analysis. Specimens were analyzed by two independent operators blinded to the treatment groups. Microsoft Excel software was used to calculate the RNI values from I/M ratios in the absence and presence of pharmacological inhibitors, as detailed in the text.
Surgical Procedures: The mouse femoral artery wire injury model of was used with minor modifications (Roque M, et al., Arterioscler Thromb Vasc Biol, 2000, 20(2):335-42). Briefly, forty-two male mice were studied. Endoluminal injury to the common femoral artery was produced by either 3 passages of a 0.014″ diameter angioplasty guidewire (Guidant, Santa Clara, Calif.). […] While being viewed under a surgical microscope, a groin incision was made and the femoral artery was isolated and temporarily clamped distal to the inguinal ligament. An arteriotomy was performed and the guidewire was passed 3 times to the level of the aortic bifurcation. The artery was then ligated proximal to the arteriotomy. A sham protocol was carried out on the contralateral side where the arteries underwent dissection, temporary clamping, and ligature, without passage of the wire. The formation of the neointima was confirmed in this model as being comprised mainly of VSMCs through immunohistochemical staining of representative sections for α-smooth muscle actin via a commercial kit (Sigma).
For all treatment protocols, rapamycin was administered by intraperitoneal injection once per day, for 14 days, as a suspension in 0.2% sodium carboxymethyl cellulose and 0.25% polysorbate-80. […]

[3] = tested on: Akt Thr-308 phosphorylation; experiment: Akt Thr-308 phosphorylation in descending aorta homogenates after i.p. treatment; assay type: in vivo; conditions: Mus musculus, ip, 168 h; LY294002 1.2 mg/kg/day i.p., 7 days; read-out: inhibition of basal Thr-308 phosphorylation of Akt in descending aortas
Source text: Animals were processed for femoral artery morphometry after the 14-day drug treatments. For assessing LY294002 efficacy in vivo, descending aortas from mice treated with LY294002 or vehicle were harvested after 7 days of treatment; 3-4 aortas were pooled for immunoblot assessment of Akt phosphorylation.

[4] = tested on: primary murine aortic vascular smooth muscle cells (VSMC); experiment: VSMC proliferation assay (Coulter counter / MTS-based); assay type: cell-based, mouse; conditions: Example 5; 6 nM leptin; inhibitor 10 μM
[5] = tested on: cultured porcine coronary arteries; conditions: LY294002 10 μM; cited from earlier work
[6] = wire injury + leptin 0.4 mg/kg, LY 1.2 mg/kg daily i.p. 14 days, mean ± SD

O=c1cc(N2CCOCC2)oc2c(-c3ccccc3)cccc12 [LY294002, 2-(4-morpholinyl)-8-phenyl-4H-1-benzopyran-4-one]
effect on leptin-induced proliferation of murine VSMC ([1]; Example 1, 100 ng/mL leptin, inhibitor 10 mM, 72 hr): did inhibit
VSMC proliferation induced by leptin and insulin ([1]; LY294002 compared with 100 nmol/L rapamycin alone): more pronounced effect
inhibition of leptin-induced neointimal formation ([2]; LY294002 1.2 mg/kg/d alone, leptin 0.4 mg/kg/d, 14 days): partially inhibited; also recorded: not the LY294002 alone group revealed a complete inhibition
relative neointimal inhibition (RNI) ([2]; LY294002 1.2 mg/kg, leptin 0.4 mg/kg): 0.70
I/M (intima:media ratio) [2, 6]: 0.574 ± 0.186
Intima [2, 6]: 0.010 ± 0.003
Lumen [2, 6]: 0.013 ± 0.002
Media [2, 6]: 0.020 ± 0.003
TVA (total vessel area) [2, 6]: 0.044 ± 0.006
inhibition at 1.2 mg/kg/day [3]: > 80%
effect on leptin-induced VSMC proliferation [4]: inhibited
neointimal hyperplasia in cultured porcine coronary arteries [5]: prevents neointimal hyperplasia
